Experimental data taken from ChEMBL document CHEMBL1123466, “Selective thromboxane synthetase inhibitors. 3. 1H-imidazol-1-yl-substituted benzo[b]furan-, benzo[b]thiophene-, and indole-2- and -3-carboxylic acids” (J Med Chem, 1986).

What was measured:
Thromboxane-A synthase = biological target: T1, Thromboxane-A synthase (Homo sapiens, UniProt P24557); assay: In vitro inhibition of thromboxane synthase from human platelets.
T1 sequence (P24557 whole entry): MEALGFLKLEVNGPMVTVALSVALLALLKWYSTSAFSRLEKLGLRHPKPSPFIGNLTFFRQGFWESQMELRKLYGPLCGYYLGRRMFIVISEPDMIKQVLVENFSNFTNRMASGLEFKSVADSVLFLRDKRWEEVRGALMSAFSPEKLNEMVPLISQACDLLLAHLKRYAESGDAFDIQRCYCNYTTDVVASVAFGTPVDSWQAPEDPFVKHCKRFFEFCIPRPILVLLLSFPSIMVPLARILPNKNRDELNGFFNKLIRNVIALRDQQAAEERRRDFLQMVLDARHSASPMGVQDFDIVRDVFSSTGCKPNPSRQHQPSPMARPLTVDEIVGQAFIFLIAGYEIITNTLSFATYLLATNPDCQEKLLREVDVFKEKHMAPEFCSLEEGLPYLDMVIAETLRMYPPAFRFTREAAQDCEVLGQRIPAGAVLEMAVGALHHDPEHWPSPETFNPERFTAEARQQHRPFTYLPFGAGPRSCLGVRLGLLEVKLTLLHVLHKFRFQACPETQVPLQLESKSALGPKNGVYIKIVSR

[1] = tested on: Prostacyclin synthase (Sus scrofa); assay: Effect on porcine aorta prostacyclin (PGI-2) synthase activity at 10e-4 M; No significant effect
[2] = biological target: Prostaglandin G/H synthase (cyclooxygenase) (Ovis aries) (UniProt P05979+P79208); assay: Effect on ram seminal vesicle cyclooxygenase activity at 10e-4 M; no significant effect; assay type: tissue-based
Prostaglandin G/H synthase (cyclooxygenase) (Ovis aries), sequence (P05979 whole entry, looked up): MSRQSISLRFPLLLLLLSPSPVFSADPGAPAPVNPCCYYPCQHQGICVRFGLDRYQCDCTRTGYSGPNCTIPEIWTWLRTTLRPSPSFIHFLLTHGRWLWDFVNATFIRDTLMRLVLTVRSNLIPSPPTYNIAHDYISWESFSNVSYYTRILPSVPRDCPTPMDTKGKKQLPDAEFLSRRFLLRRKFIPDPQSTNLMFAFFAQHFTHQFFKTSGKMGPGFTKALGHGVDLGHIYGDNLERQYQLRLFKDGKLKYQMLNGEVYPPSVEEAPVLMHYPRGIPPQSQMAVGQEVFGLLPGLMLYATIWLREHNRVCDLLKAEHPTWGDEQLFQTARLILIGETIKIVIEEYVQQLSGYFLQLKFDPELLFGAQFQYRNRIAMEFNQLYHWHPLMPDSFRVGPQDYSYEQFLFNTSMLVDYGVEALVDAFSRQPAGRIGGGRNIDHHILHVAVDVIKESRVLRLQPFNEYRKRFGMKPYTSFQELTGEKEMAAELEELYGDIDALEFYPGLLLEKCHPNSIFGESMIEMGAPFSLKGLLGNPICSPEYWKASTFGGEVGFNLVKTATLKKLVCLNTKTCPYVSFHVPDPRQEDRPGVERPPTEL
Prostaglandin G/H synthase (cyclooxygenase) (Ovis aries), sequence (P79208 whole entry, looked up): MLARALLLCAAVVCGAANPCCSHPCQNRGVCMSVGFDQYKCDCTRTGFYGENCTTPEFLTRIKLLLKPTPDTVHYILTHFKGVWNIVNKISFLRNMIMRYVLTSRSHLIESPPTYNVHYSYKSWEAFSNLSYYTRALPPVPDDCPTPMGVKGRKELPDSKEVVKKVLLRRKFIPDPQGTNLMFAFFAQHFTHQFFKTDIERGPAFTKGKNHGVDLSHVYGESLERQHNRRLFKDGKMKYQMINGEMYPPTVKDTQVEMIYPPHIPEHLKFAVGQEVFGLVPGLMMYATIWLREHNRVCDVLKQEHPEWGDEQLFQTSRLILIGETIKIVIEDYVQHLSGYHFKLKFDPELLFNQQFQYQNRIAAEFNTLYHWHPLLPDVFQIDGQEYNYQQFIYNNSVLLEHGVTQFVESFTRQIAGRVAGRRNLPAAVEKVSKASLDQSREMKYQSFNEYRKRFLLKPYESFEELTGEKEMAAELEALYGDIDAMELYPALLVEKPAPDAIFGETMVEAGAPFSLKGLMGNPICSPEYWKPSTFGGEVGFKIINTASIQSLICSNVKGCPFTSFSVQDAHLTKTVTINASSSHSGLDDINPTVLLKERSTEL

[3] = biological target: T2, Cytochrome P450 11B1, mitochondrial (Rattus norvegicus, UniProt P15393); assay: Effect on adrenal 11-beta-hydroxylase activity at 10e-4 M; No significant effect
T2 sequence (P15393 whole entry): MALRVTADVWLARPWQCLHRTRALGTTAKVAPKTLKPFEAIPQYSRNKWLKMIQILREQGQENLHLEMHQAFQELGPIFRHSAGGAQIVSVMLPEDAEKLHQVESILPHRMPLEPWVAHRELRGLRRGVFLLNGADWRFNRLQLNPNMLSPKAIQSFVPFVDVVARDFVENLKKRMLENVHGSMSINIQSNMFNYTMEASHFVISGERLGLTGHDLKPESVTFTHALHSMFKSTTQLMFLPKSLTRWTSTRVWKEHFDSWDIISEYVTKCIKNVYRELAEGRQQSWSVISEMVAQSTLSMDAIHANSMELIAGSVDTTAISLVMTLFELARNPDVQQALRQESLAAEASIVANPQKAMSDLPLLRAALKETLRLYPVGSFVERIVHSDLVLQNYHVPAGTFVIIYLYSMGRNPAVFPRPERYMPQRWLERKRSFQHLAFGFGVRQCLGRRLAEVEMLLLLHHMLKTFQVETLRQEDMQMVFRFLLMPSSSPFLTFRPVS

Row | IC50 (Thromboxane-A synthase) [nM] | SMILES | also measured
1 | 140 | Cc1c(C(=O)O)sc2cc(OCCn3ccnc3)ccc12 | 
2 | 20 | O=C(O)c1cc2ccc(Cn3ccnc3)cc2o1 | 
3 | 34 | O=C(O)c1csc2c(Cn3ccnc3)cccc12 | 
4 | 34 | O=C(O)c1cc2cc(Cn3ccnc3)ccc2o1 | 
5 | 5 | COc1cc(Cn2ccnc2)cc2sc(C(=O)O)cc12 | 
6 | 21 | O=C(O)c1cc2cc(Cn3ccnc3)ccc2s1 | 
7 | 33 | O=C(O)c1cc2ccc(Cn3ccnc3)cc2[nH]1 | 
8 | 31 | O=C(O)COc1ccc(Cn2ccnc2)cc1 | 

Continued, compound first:

Row | SMILES | IC50 (Thromboxane-A synthase) [nM] | also measured
9 | O=C(O)c1csc2ccc(Cn3ccnc3)cc12 | 1700 | 
10 | O=C(O)c1csc2cc(Cn3ccnc3)ccc12 | 19 | 
11 | O=C(O)c1cc2cc(Cn3ccnc3)ccc2[nH]1 | 5 | 
12 | O=C(O)c1cc2ccc(Cn3ccnc3)cc2s1 | 18 | 
13 | O=C(O)c1cc2cc(OCCn3ccnc3)ccc2s1 | 420 | 
14 | O=C(O)c1cc2cccc(Cn3ccnc3)c2s1 | 120 | 
15 | Cc1c(C(=O)O)sc2cc(Cn3ccnc3)ccc12 | 5.2 | Effect [1]: No effect; Effect [2]: No effect; Effect [3]: No effect
16 | O=C(O)c1sc2cc(Cn3ccnc3)ccc2c1Cl | 7.4 | 
17 | O=C(O)c1cc2c(O)cc(Cn3ccnc3)cc2s1 | 52 | 
18 | Cc1c(C(=O)O)sc2ccc(Cn3ccnc3)cc12 | 29 | 
